Measurements taken from the supplement of paper PMC10307832.

Assays:
Test in all cases: relative viability (nuclei count vs DMSO), 5 days (fraction); higher = more cells survive
[1] = compound: N[C@@H]1CCCN(c2c(/C=C3\SC(=O)NC3=O)cccc2-c2ccccc2)C1 [AZD1208] + CC(=O)Nc1cccc(-n2c(=O)n(C3CC3)c(=O)c3c(Nc4ccc(I)cc4F)n(C)c(=O)c(C)c32)c1 [Trametinib] (partner 0.02 µM)
Procedure, shortened: (§1)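 Relative viability is defined as nuclei in treated wells over nuclei in vehicle wells. Duplicate plates were run and medians reported. Lung cancer cell lines in 1536-well plates were dosed by pin tool one day after seeding, with one drug or with a fixed anchor-drug dose plus five library-drug doses (not always all listed) in √10 steps, and nuclei were counted after 5 days.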

[2] = compound: N[C@@H]1CCCN(c2c(/C=C3\SC(=O)NC3=O)cccc2-c2ccccc2)C1 [AZD1208] + CS(=O)(=O)N1CCN(Cc2cc3nc(-c4cccc5[nH]ncc45)nc(N4CCOCC4)c3s2)CC1 [Pictilisib] (partner 1 µM)
Procedure, shortened: as §1

[3] = compound: CN1CCN(CC1)C2=CC(=C(C=C2)NC3=NC(=C(S3)C(=O)C4=C(C=CC=C4Cl)Cl)N)OC [XMD14-99] + C[C@@H](Oc1cc(-c2cnn(C3CCNCC3)c2)cnc1N)c1c(Cl)ccc(F)c1Cl [Crizotinib] (partner 1 µM)
Procedure, shortened: as §1

[4] = compound: CN1CCN(CC1)C2=CC(=C(C=C2)NC3=NC(=C(S3)C(=O)C4=C(C=CC=C4Cl)Cl)N)OC [XMD14-99] + COc1cc2c(Oc3ccc(NC(=O)C4(C(=O)Nc5ccc(F)cc5)CC4)cc3F)ccnc2cc1OCCCN1CCOCC1 [Foretinib] (partner 0.25 µM)
Procedure, shortened: as §1

Cell Line | relative viability ([1]; first compound 0.08 µM) | relative viability ([1]; first compound 0.253 µM) | relative viability ([1]; first compound 0.8 µM) | relative viability ([1]; first compound 2.53 µM) | relative viability ([1]; first compound 8 µM) | relative viability ([2]; first compound 0.08 µM) | relative viability ([2]; first compound 0.253 µM) | relative viability ([2]; first compound 0.8 µM) | relative viability ([2]; first compound 2.53 µM) | relative viability ([2]; first compound 8 µM) | relative viability ([3]; first compound 0.08 µM) | relative viability ([3]; first compound 0.8 µM) | relative viability ([3]; first compound 2.53 µM) | relative viability ([3]; first compound 8 µM) | relative viability ([4]; first compound 0.08 µM) | relative viability ([4]; first compound 0.8 µM) | relative viability ([4]; first compound 2.53 µM) | relative viability ([4]; first compound 8 µM)
HCC-366 | 0.328 | 0.327 | 0.297 | 0.286 | 0.221 | 0.112 | 0.0978 | 0.123 | 0.092 | 0.0878 | 0.494 | 0.503 | 0.478 | 0.497 | 0.912 | 0.943 | 0.96 | 0.918
SK-MES-1 | 0.47 | 0.509 | 0.54 | 0.533 | 0.482 | 0.257 | 0.326 | 0.303 | 0.3 | 0.291 | 0.991 | 0.946 | 1.01 | 0.639 | 1.01 | 0.927 | 0.971 | 0.745
NCI-H727 | 0.413 | 0.325 | 0.352 | 0.395 | 0.39 | 0.355 | 0.297 | 0.262 | 0.264 | 0.355 | 0.889 | 0.704 | 0.561 | 0.381 | 0.95 | 0.893 | 0.684 | 0.555
RERF-LC-KJ | 0.903 | 0.844 | 0.727 | 0.776 | 0.548 | 0.434 | 0.526 | 0.464 | 0.438 | 0.368 | 0.891 | 0.836 | 0.845 | 0.699 | 0.462 | 0.908 | 0.867 | 0.803
NCI-H1623 |  |  |  |  |  |  |  |  |  |  |  |  |  |  | 0.852 | 0.86 | 0.88 | 0.68
Calu-6 |  |  |  |  |  | 0.784 | 1 | 0.851 | 0.829 | 0.739 | 0.807 | 0.756 | 0.747 | 0.513 | 0.897 | 0.905 | 0.843 | 0.593
LC-2-ad | 0.92 | 0.917 | 0.664 | 0.933 | 0.935 | 0.397 | 0.446 | 0.405 | 0.357 | 0.417 | 0.424 | 0.461 | 0.478 | 0.414 | 1 | 1.01 | 0.849 | 0.836
CAL-12T | 0.377 | 0.331 | 0.339 | 0.332 | 0.251 | 0.507 | 0.523 | 0.389 | 0.355 | 0.511 | 0.926 | 0.609 | 0.724 | 0.466 | 1.09 | 1.06 | 0.876 | 1.02
SK-LU-1 | 0.46 | 0.531 | 0.446 | 0.491 | 0.585 | 0.459 | 0.607 | 0.532 | 0.567 | 0.431 | 0.788 | 0.923 | 0.796 | 0.58 | 0.818 | 0.803 | 0.758 | 0.477
NCI-H1650 | 0.575 | 0.667 | 0.536 | 0.517 | 0.537 | 0.529 | 0.575 | 0.434 | 0.395 | 0.41 | 1 | 0.951 | 1.09 | 0.849 | 1.14 | 1.27 | 1.13 | 0.941
